Where two headings read alike, the source gives them in different places.
How the values were obtained:
Type in all cases: cell-based
BCL-XL = target: T1, BCL-XL (Homo sapiens, UniProt Q07817); assay: Bcl-xL ELISA degradation in MOLT-4 cells, 6 h; settings: for DC50: read-out: Bcl-xL ELISA in MOLT-4 degradation 6 h: Mean external-Abs DC50
T1 construct: endogenous in cells; host or cells: MOLT-4
Description: The letter codes for BCL-XL DC50 include: A (<0.01 μM); B (0.01-0.1 μM); C (>[…]); D (>0.5-1.0 μM); and E (>1.0 μM). The letter codes for Dmax % include A (>75%); B (50 to 75%); C (<50%).

MOLT-4 cells = assay: CTG (CellTiter-Glo) cell viability assay, MOLT-4; settings: Homo sapiens, 3 day incubation, read-out: CTG Cell Viability Assay - MOLT-4 3 day: Average external-IC50
How it was run: (§1)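 MOLT-4 and Caki-2 cells were seeded at 10,000 per well and treated with a 9-point, 1:3 dilution series from 10 μM top concentration (0.2% DMSO). After 3 days at 37 °C, 5% CO2, viability was read by CellTiter-Glo luminescence and IC50 fitted by three-parameter logistic.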

Caki-2 cells = assay: CTG (CellTiter-Glo) cell viability assay, Caki-2; settings: Homo sapiens, 72 h, 3 day incubation, read-out: CTG Chempartner - Caki-2 3 day: Average external-IC50
How it was run: as §1

T1 sequence (Q07817 whole entry): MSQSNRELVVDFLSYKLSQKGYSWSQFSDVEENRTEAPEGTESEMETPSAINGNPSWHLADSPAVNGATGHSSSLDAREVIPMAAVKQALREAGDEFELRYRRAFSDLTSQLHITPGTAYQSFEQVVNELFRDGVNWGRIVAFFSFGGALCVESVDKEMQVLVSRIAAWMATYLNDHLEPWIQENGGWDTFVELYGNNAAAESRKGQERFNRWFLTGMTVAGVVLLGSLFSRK

SMILES | Dmax (BCL-XL) [%] | DC50 (BCL-XL) [nM] | IC50 (MOLT-4 cells; MOLT-4, 72 h) [nM] | IC50 (Caki-2 cells) [µM] | IC50 (MOLT-4 cells; 72 h) [nM]
C#Cc1ccc(CNC(=O)[C@@H]2C[C@@H](O)CN2C(=O)[C@H](c2cc(N3CCN(c4ccc(S(=O)(=O)NC(=O)c5nc(N6CCc7cccc(C(=O)Nc8nc9ccccc9s8)c7C6)ccc5-c5cnn(CC6CCCCC6)c5C)cc4)CC3)no2)C(C)C)cc1 [I-407] | 50 to 75 | 100 to 500 | 100 to 1000 | 1 to 10 | –
C#Cc1ccc(CNC(=O)[C@@H]2C[C@@H](O)CN2C(=O)[C@@H](NC(=O)CCc2ccc(S(=O)(=O)NC(=O)c3nc(N(C)c4cc(C)c(Nc5nc6ccccc6s5)nn4)ccc3-c3cnn(CC(C)C)c3C)cc2)C(C)(C)C)cc1 [I-326] | < 50 | > 1000 | > 3000 | > 10 | –
Cc1cc(N(C)c2ccc(-c3cnn(CC45CC6CC(CC(C6)C4)C5)c3C)c(C(=O)NS(=O)(=O)CC3CCN(CC(=O)N[C@H](C(=O)N4C[C@H](O)C[C@H]4C(=O)N[C@@H](C)c4ccc(-c5scnc5C)cc4)C(C)(C)C)CC3)n2)nnc1Nc1nc2cccnc2s1 [I-449] | > 75 | 100 to 500 | – | > 10 | > 3000
Cc1ncsc1-c1ccc(CNC(=O)[C@@H]2C[C@@H](O)CN2C(=O)[C@@H](NC(=O)CCc2ccc(S(=O)(=O)NC(=O)c3nc(N4CCc5cccc(C(=O)Nc6nc7ccccc7s6)c5C4)ccc3-c3cnn(CC4CCCCC4)c3C)cn2)C(C)(C)C)cc1 [I-342] | > 75 | 100 to 500 | 100 to 1000 | > 10 | –
Cc1ncsc1-c1ccc([C@H](C)NC(=O)[C@@H]2C[C@@H](O)CN2C(=O)[C@@H](NC(=O)C2CCN(c3ccc(S(=O)(=O)NC(=O)c4nc(N5CCc6cccc(C(=O)Nc7nc8ccccc8s7)c6C5)ccc4-c4cccc(N(C)C(C)C)c4C)cc3)CC2)C(C)(C)C)cc1 [I-323] | 50 to 75 | 100 to 500 | 100 to 1000 | > 10 | –
Cc1ncsc1-c1ccc([C@H](C)NC(=O)[C@@H]2C[C@@H](O)CN2C(=O)[C@@H](NC(=O)C2CCN(C3CCN(S(=O)(=O)NC(=O)c4nc(N5CCc6cccc(C(=O)Nc7nc8ccccc8s7)c6C5)ccc4-c4cnn(CC5CCCCC5)c4C)CC3)CC2)C(C)(C)C)cc1 [I-308] | > 75 | 100 to 500 | < 100 | 1 to 10 | –
Cc1ncsc1-c1ccc([C@H](C)NC(=O)[C@@H]2C[C@@H](O)CN2C(=O)[C@@H](NC(=O)C2CCN(c3ccc(S(=O)(=O)NC(=O)c4nc(N5CCc6cccc(C(=O)Nc7nc8ccccc8s7)c6C5)ccc4-c4ccnc(OC(C)C)c4C)cc3)CC2)C(C)(C)C)cc1 [I-300] | 50 to 75 | 100 to 500 | 100 to 1000 | 1 to 10 | –
Cc1cc(N(C)c2ccc(-c3cnn(CC45CC6CC(CC(C6)C4)C5)c3C)c(C(=O)NS(=O)(=O)CCN(C)CCC(=O)N[C@H](C(=O)N3C[C@H](O)C[C@H]3C(=O)N[C@@H](C)c3ccc(-c4scnc4C)cc3)C(C)(C)C)n2)nnc1Nc1nc2ccccc2s1 [I-428] | > 75 | 10 to 100 | < 100 | > 10 | –
Cc1ncsc1-c1ccc([C@H](C)NC(=O)[C@@H]2C[C@@H](O)CN2C(=O)[C@@H](NC(=O)C2CCN(c3ccc(S(=O)(=O)NCc4nc(N5CCc6cccc(C(=O)Nc7nc8ccccc8s7)c6C5)ccc4-c4cnn(CC5CCCCC5)c4C)cc3)CC2)C(C)(C)C)cc1 [I-324] | < 50 | > 1000 | > 3000 | > 10 | –
Cc1ncsc1-c1ccc([C@H](C)NC(=O)[C@@H]2C[C@@H](O)CN2C(=O)[C@@H](c2cc(OC3CCN(CCNC(=O)c4nc(N5CCc6cccc(C(=O)Nc7nc8ccccc8s7)c6C5)ccc4-c4cnn(CC5CCCCC5)c4C)CC3)no2)C(C)C)cc1 [I-291] | < 50 | 500 to 1000 | 1000 to 3000 | 1 to 10 | –
Cc1ncsc1-c1ccc([C@H](C)NC(=O)[C@@H]2C[C@@H](O)CN2C(=O)[C@@H](NC(=O)CCCS(=O)(=O)NC(=O)c2nc(N3CCc4cccc(C(=O)Nc5nc6cccnc6s5)c4C3)ccc2-c2cnn(CC3CCCCC3)c2C)C(C)(C)C)cc1 [I-331] | 50 to 75 | 100 to 500 | 100 to 1000 | > 10 | –
Cc1ncsc1-c1ccc([C@H](C)NC(=O)[C@@H]2C[C@H](O)CN2C(=O)[C@@H](NC(=O)CCc2ccc(S(=O)(=O)NC(=O)c3nc(N4CCc5cccc(C(=O)Nc6nc7ccccc7s6)c5C4)ccc3-c3cnn(CC4CCCCC4)c3C)cc2)C(C)(C)C)cc1 [I-285] | 50 to 75 | 100 to 500 | 100 to 1000 | 1 to 10 | –
C#Cc1ccc(CNC(=O)[C@@H]2C[C@@H](O)CN2C(=O)[C@@H](NC(=O)CCNCCS(=O)(=O)NC(=O)c2nc(N3CCc4cccc(C(=O)Nc5nc6cccnc6s5)c4C3)ccc2-c2cnn(CC3CCCCC3)c2C)C(C)(C)C)cc1 [I-375] | > 75 | 10 to 100 | 1000 to 3000 | > 10 | –

The next lines start with results.

Dmax (BCL-XL) [%] | DC50 (BCL-XL) [nM] | IC50 (MOLT-4 cells; MOLT-4, 72 h) [nM] | SMILES | IC50 (Caki-2 cells) [µM] | IC50 (MOLT-4 cells; 72 h) [nM]
> 75 | < 10 | < 100 | Cc1c(-c2ccc(N3CCc4cccc(C(=O)Nc5nc6ccccc6s5)c4C3)nc2C(=O)NS(=O)(=O)CCCCCc2cccc3c2n(C)c(=O)n3C2CCC(=O)NC2=O)cnn1CC1CCCCC1 (centres unmarked) [I-426] | 1 to 10 | –
> 75 | 10 to 100 | 100 to 1000 | Cc1ncsc1-c1ccc([C@H](C)NC(=O)[C@@H]2C[C@@H](O)CN2C(=O)[C@@H](NC(=O)C2CCN(CCCS(=O)(=O)NC(=O)c3nc(N4CCc5cccc(C(=O)Nc6nc7ccccc7s6)c5C4)ccc3-c3cnn(CC4CCCCC4)c3C)CC2)C(C)(C)C)cc1 [I-381] | > 10 | –
> 75 | < 10 | < 100 | Cc1c(-c2ccc(N3CCc4cccc(C(=O)Nc5nc6ccccc6s5)c4C3)nc2C(=O)NS(=O)(=O)CCCCCc2ccc3c(c2)n(C)c(=O)n3C2CCC(=O)NC2=O)cnn1CC1CCCCC1 (centres unmarked) [I-425] | 1 to 10 | –
> 75 | 10 to 100 | < 100 | C#Cc1ccc(CNC(=O)[C@@H]2C[C@@H](O)CN2C(=O)[C@@H](NC(=O)C2CN(c3ccc(S(=O)(=O)NC(=O)c4nc(N5CCc6cccc(C(=O)Nc7nc8ccccc8s7)c6C5)ccc4-c4cnn(CC5CCCCC5)c4C)cc3F)C2)C(C)(C)C)cc1 [I-358] | 1 to 10 | –
> 75 | < 10 | < 100 | C#Cc1ccc(C2(NC(=O)[C@@H]3C[C@@H](O)CN3C(=O)[C@@H](NC(=O)CCCCCS(=O)(=O)NC(=O)c3nc(N4CCc5cccc(C(=O)Nc6nc7cccnc7s6)c5C4)ccc3-c3cnn(CC4CCCCC4)c3C)C(C)(C)C)CC2)cc1 [I-482] | > 10 | –
> 75 | < 10 | < 100 | C#Cc1ccc([C@H](CO)NC(=O)[C@@H]2C[C@@H](O)CN2C(=O)[C@@H](NC(=O)CCCCCS(=O)(=O)NC(=O)c2nc(N(C)c3cc(C)c(Nc4nc5ccccc5s4)nn3)ccc2-c2cnn(CC34CC5CC(CC(C5)C3)C4)c2C)C(C)(C)C)cc1 [I-474] | > 10 | –
> 75 | 10 to 100 | < 100 | Cc1ncsc1-c1ccc([C@H](C)NC(=O)[C@@H]2C[C@@H](O)CN2C(=O)[C@@H](NC(=O)C2CCN(c3ccc(S(=O)(=O)NC(=O)c4nc(N5CCc6cccc(C(=O)Nc7nc8ccccc8s7)c6C5)ccc4-c4cnn(CC5CCCCC5)c4C)cc3F)CC2)C(C)(C)C)cc1 [I-328] | 1 to 10 | –
50 to 75 | 10 to 100 | 100 to 1000 | Cc1ncsc1-c1ccc([C@H](C)NC(=O)[C@@H]2C[C@@H](O)CN2C(=O)[C@@H](c2cc(OC3CC4(C3)CN(C(=O)c3nc(N5CCc6cccc(C(=O)Nc7nc8ccccc8s7)c6C5)ccc3-c3cnn(CC5CCCCC5)c3C)C4)no2)C(C)C)cc1 [I-294] | 1 to 10 | –
> 75 | 10 to 100 | 100 to 1000 | C#Cc1ccc(CNC(=O)[C@@H]2C[C@@H](O)CN2C(=O)[C@@H](NC(=O)CCN(C)CCS(=O)(=O)NC(=O)c2nc(N3CCc4cccc(C(=O)Nc5nc6cccnc6s5)c4C3)ccc2-c2cnn(CC3CCCCC3)c2C)C(C)(C)C)cc1 [I-413] | > 10 | –
> 75 | < 10 | < 100 | Cc1ncsc1-c1ccc(CNC(=O)[C@@H]2C[C@@H](O)CN2C(=O)[C@@H](NC(=O)CCc2cccc(S(=O)(=O)NC(=O)c3nc(N4CCc5cccc(C(=O)Nc6nc7ccccc7s6)c5C4)ccc3-c3cnn(CC4CCCCC4)c3C)c2)C(C)(C)C)cc1 [I-283] | 1 to 10 | –
> 75 | < 10 | < 100 | Cc1cc(N(C)c2ccc(-c3cnn(CC45CC6CC(CC(C6)C4)C5)c3C)c(C(=O)NS(=O)(=O)CCCCCc3ccc4c(c3)n(C)c(=O)n4C3CCC(=O)NC3=O)n2)nnc1Nc1nc2ccccc2s1 (centres unmarked) [I-424] | 1 to 10 | –
> 75 | < 10 | < 100 | Cc1ncsc1-c1ccc([C@H](C)NC(=O)[C@@H]2C[C@@H](O)CN2C(=O)[C@@H](NC(=O)CCCCCS(=O)(=O)NC(=O)c2nc(N3CCc4cccc(C(=O)Nc5nc6c(F)cccc6s5)c4C3)ccc2-c2cnn(CC3CCCCC3)c2C)C(C)(C)C)cc1 [I-459] | > 10 | –
> 75 | < 10 | 100 to 1000 | Cc1ncsc1-c1ccc(CNC(=O)[C@@H]2C[C@@H](O)CN2C(=O)[C@@H](NC(=O)C2CCN(c3ccc(S(=O)(=O)NC(=O)c4nc(N5CCc6cccc(C(=O)Nc7nc8ccccc8s7)c6C5)ccc4-c4cnn(CC5CCCCC5)c4C)cc3C#N)CC2)C(C)(C)C)cc1 [I-360] | > 10 | –
